Measured values from patent US20260356851A1, “TRICYCLIC COMPOUNDS AND USES THEREOF” (HUTCHMED LIMITED, priority 2023, published 2026).

Tests used:
Type in all cases: cell-based
[1] = biological target: T1, pERK1/2 (Thr202/Tyr204), NCI-1H441 (KRAS G12V) (Homo sapiens, UniProt P01116, G12V); test: Assay of intracellular pERK1/2 (Thr202/Tyr204) phosphorylation in NCI-H441 cells (KRAS G12V); details: pERK1/2, 2 days, read-out: NCI-H441 (KRAS G12V) IC50
T1 construct: pERK1/2 HTRF read-out
Method: (§1) Example 2: Assay of intracellular pERK1/2 (Thr202/Tyr204)phosphorylation
(§2) 1. Reagents and materials: • pERK1/2 (Thr202/Tyr2O4) HIRE kit, Cisbio, Cat #64ERKPEH; • OptiPlate™-384-well plate, PerkinElmer, Cat #6007299; • 96-well plate, Coming, Cat #353072; • Instrument: EnVision2104, PerkinElmer; • Cell lines: NCI-1H358 (KRAS G12C), ATCC, CRL-5807; PANC-1 (KRAS G121D), ATCC, CRL-1469; NCI-1H441 (KRAS G12V), ATCC, HTB-174.
(§3) 2. Preparation of Reaction Solutions
(§4) • A test compound was dissolved in DMSO, diluted to 200.0 μM and further diluted 3-fold to prepare a series of test compounds at concentrations of 66.7, 22.2, 7.4, 2.5, 0.82, 0.27, 0.09 μM etc. Then 10 μL of the compound at different dilution concentrations was added to 190 μL of a DMEM medium to prepare a 10× test compound; • 1× cell lysis buffer: 4× cell lysis stock solution (provided by the kit) was diluted 4-fold with deionized water, and then 10% 100× blocking stock solution (provided by the kit) was added thereto. • pERK1/2 detection solution (prepared just before use): the pERK1/2 d2 antibody (provided by the kit) and pERK1/2 Cryptate antibody (provided by the kit) were diluted with the detection solution (provided by the kit) at a ratio of 1:1:38.
(§5) • Cells were inoculated into a 96-well plate (100 μL/well) at a density of 10000-12000/well. No cell was inoculated into a negative control well, and only the cell medium was added at 100 μL/well. The plate was placed in a cell incubator at 5% CO2 and 37° C. overnight. • 10 μL of the 10× test compound was added to the 100 μL cell culture 96-well plate; both the positive control well (that is, the control hole without chemical compound treatment) and the negative control well were charged with 10 μL of a 5% DMSO culture solution; and the plate was cultured in a cell incubator at 5% CO2 and 37° C. for 2 days. • The medium in the 96-well plate was removed; 50 μL of the 1× cell lysis buffer was added to each of the wells; the plate was placed in a microplate shaker; and lysis under shaking was carried out at 900 rpm at room temperature for 1 hour. • 16 μL of the lysis buffer in the 96-well plate was taken and transferred to a 384-well plate, followed by centrifugation at 1000 rpm for 30 s; then 4 μL of pERK1/2 detection solution was added to each well, followed by centrifugation at 1000 rpm for 30 s; and the 384-well plate was sealed with a sealing membrane and incubated at 25° C. on a low-speed shaker at 100 rpm in the dark for 2 hours. • The fluorescence value (RFU) of each well was detected on EnVision2104, with an emission wavelength 1 being 665 nm and an emission wavelength 2 being 615 nm.
(§6) Fluorescence ratio=fluorescence value665 nm/fluorescence value615 nm
(§7) Inhibition rate (%)=100−((fluorescence ratio of compound well−fluorescence ratio of negative control well)/(fluorescence ratio of positive control well−fluorescence ratio of negative control well))×100
(§8) wherein: • the fluorescence ratio of compound well refers to the fluorescence ratio of the well containing the test compounds; • the fluorescence ratio of negative control well refers to the fluorescence ratio of the cell-free control well; • the fluorescence ratio of positive control well refers to the fluorescence ratio of the cell well treated with 0.5% DMSO.
(§9) IC50 value: obtained by calculation using XL-Fit 5.0 software.

[2] = biological target: T2, pERK1/2 (Thr202/Tyr204), PANC-1 (KRAS G121D) (Homo sapiens, UniProt P01116, G12D); test: Assay of intracellular pERK1/2 (Thr202/Tyr204) phosphorylation in PANC-1 cells (KRAS G12D); details: pERK1/2, 2 days, read-out: PANC-1 (KRAS G12D) IC50
T2 construct: pERK1/2 HTRF read-out
T2 sequence (P01116 1-188 isoform P01116-2 G12D): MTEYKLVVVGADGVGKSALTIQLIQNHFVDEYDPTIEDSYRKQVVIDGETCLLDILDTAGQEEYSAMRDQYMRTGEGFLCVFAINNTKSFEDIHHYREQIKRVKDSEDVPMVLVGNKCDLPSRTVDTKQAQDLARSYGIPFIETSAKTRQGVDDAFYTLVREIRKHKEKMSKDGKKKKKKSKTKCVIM
Method: as §1, §2, §3, §4, §5, §6, §7, §8, §9

[3] = biological target: T3, pERK1/2 (Thr202/Tyr204), NCI-1H358 (KRAS G12C) (Homo sapiens, UniProt P01116, G12C); test: Assay of intracellular pERK1/2 (Thr202/Tyr204) phosphorylation in NCI-H358 cells (KRAS G12C); details: pERK1/2, 2 days, read-out: NCI-H358 (KRAS G12C) IC50
T3 construct: pERK1/2 HTRF read-out
T3 sequence (P01116 1-188 isoform P01116-2 G12C): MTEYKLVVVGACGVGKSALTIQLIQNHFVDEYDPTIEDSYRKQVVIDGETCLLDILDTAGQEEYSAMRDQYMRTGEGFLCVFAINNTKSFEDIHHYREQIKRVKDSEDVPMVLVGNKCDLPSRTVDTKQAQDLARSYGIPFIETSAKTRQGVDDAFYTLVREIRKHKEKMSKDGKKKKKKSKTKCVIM
Method: as §1, §2, §3, §4, §5, §6, §7, §8, §9

T1 sequence (P01116 1-188 isoform P01116-2 G12V): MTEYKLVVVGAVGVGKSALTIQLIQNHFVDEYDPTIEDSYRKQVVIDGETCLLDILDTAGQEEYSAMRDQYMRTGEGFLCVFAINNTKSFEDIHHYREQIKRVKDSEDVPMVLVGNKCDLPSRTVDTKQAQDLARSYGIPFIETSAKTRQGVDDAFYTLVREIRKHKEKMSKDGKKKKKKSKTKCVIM

Structure (SMILES) | IC50 [1] | IC50 [2] | IC50 [3]
Cc1c(F)c(N)cc(-c2nc3c4c(nc(OC[C@@]56CCC(=O)N5C[C@H](F)C6)nc4c2F)N(C(C)c2cccnc2N)CCO3)c1C(F)(F)F (some centres unmarked) [Compound 195] | 99 nM | > 100 nM | 33 nM
CC(c1cccnc1N)N1c2nc(OC[C@@]34CCCN3C[C@H](F)C4)nc3c(F)c(-c4cc(O)cc(Cl)c4C#N)nc(c23)OC[C@@H]1C (some centres unmarked) [Compound 322] | 97 nM | > 100 nM | 21 nM
CC(c1cccnc1N)N1CCOc2nc(-c3cc(N)cc(Cl)c3C(F)(F)F)c(F)c3nc(OC[C@@]45CCCN4C[C@H](F)C5)nc1c23 (single isomer, unassigned) [Compound 71, 3-((R or S)-1-(5-(5-amino-3-chloro-2-(trifluoromethyl)phenyl)-4-fluoro-2-(((2R,7aS)-2-fluorotetrahydro-1H-pyrrolizin-7a(5H)-yl)methoxy)-8,9-dihydro-10H-7-oxa-1,3,6,10-tetraazacyclohepta[de]naphthalen-10-yl)ethyl)pyridin-2-amine] | 0.4 nM | 0.6 nM | 0.1 nM
Cc1c(F)c(N)cc(-c2nc3c4c(nc(OC[C@]56CCCN5C[C@@H](F)C6)nc4c2F)N(C(C)c2cccnc2N)CCO3)c1C(F)(F)F (some centres unmarked) [Compound 163] | 0.4 nM | 6 nM | 0.2 nM
CC(c1cccnc1N)N1CCOc2nc(-c3cc(O)cc4ccc(F)c(F)c34)c(F)c3nc(OC[C@@H]4CC(F)(F)CN4C)nc1c23 (single isomer, unassigned) [Compound 51, 4-(10-((R or S)-1-(2-aminopyridin-3-yl)ethyl)-2-(((S)-4,4-difluoro-1-methylpyrrolidin-2-yl)methoxy)-4-fluoro-9,10-dihydro-8H-7-oxa-1,3,6,10-tetraazacyclohepta[de]naphthalen-5-yl)-5,6-difluoronaphthalen-2-ol] | 5 nM | 100 nM | 2 nM
Cc1cc2[nH]ncc2c(-c2nc3c4c(nc(OC[C@@]56CCCN5C[C@H](F)C6)nc4c2F)N(C(C)c2cccnc2N)[C@@H](C)CO3)c1Cl (some centres unmarked) [Compound 313] | 1 nM | 3 nM | 0.5 nM
CC(c1cccnc1N)N1c2nc(OC[C@@]34CCCN3C[C@H](F)C4)nc3c(F)c(-c4c5c(cc6[nH]ncc46)CCC(F)(F)C5)nc(c23)OC[C@@H]1C (some centres unmarked) [Compound 376] | 1 nM | 4 nM | 0.4 nM
CC(c1cccnc1N)N1c2nc(OC[C@@]34CCCN3C[C@H](F)C4)nc3c(F)c(-c4c(Cl)c(C(F)(F)F)cc5[nH]ncc45)nc(c23)OC[C@@H]1C (single isomer, unassigned) [Compound 361] | 5 nM | 34 nM | 2 nM
CC(c1cccnc1N)N1CCOc2nc(-c3cc(O)cc(Cl)c3C3CC3)c(F)c3nc(OC[C@@]45CCCN4C[C@H](F)C5)nc1c23 (single isomer, unassigned) [Compound 43, 3-(10-((R or S)-1-(2-aminopyridin-3-yl)ethyl)-4-fluoro-2-(((2R,7aS)-2-fluorotetrahydro-1H-pyrrolizin-7a(5H)-yl)methoxy)-9,10-dihydro-8H-7-oxa-1,3,6,10-tetraazacyclohepta[de]naphthalen-5-yl)-5-chloro-4-cyclopropylphenol] | > 1000 nM | > 1000 nM | > 1000 nM
CC(c1cccnc1N)N1c2nc(OC[C@@]34CCCN3C[C@H](F)C4)nc3c(F)c(-c4cc(N)cc(Cl)c4C(F)(F)F)nc(c23)OC[C@@H]1C (single isomer, unassigned) [Compound 271, 3-((R or S)-1-((S)-5-(5-amino-3-chloro-2-(trifluoromethyl)phenyl)-4-fluoro-2-(((2R,7aS)-2-fluorotetrahydro-1H-pyrrolizin-7a(5H)-yl)methoxy)-9-methyl-8,9-dihydro-10H-7-oxa-1,3,6,10-tetraazacyclohepta[de]naphthalen-10-yl)ethyl)pyridin-2-amine] | > 100 nM | > 100 nM | 66 nM
CC(c1cccnc1N)N1c2nc(OC[C@@]34CCCN3C[C@H](F)C4)nc3c(F)c(-c4cc(O)cc5ccc(F)c(F)c45)nc(c23)OC[C@@H]1C (single isomer, unassigned) [Compound 276, 4-((S)-10-((R or S)-1-(2-aminopyridin-3-yl)ethyl)-4-fluoro-2-(((2R,7aS)-2-fluorotetrahydro-1H-pyrrolizin-7a(5H)-yl)methoxy)-9-methyl-9,10-dihydro-8H-7-oxa-1,3,6,10-tetraazacyclohepta[de]naphthalen-5-yl)-5,6-difluoronaphthalen-2-ol] | > 100 nM | > 100 nM | 77 nM
CCC(c1cccnc1N)N1CCOc2nc(-c3cc(N)c(F)c(F)c3C(F)(F)F)c(F)c3nc(OC[C@@]45CCCN4C[C@H](F)C5)nc1c23 (single isomer, unassigned) [Compound 217, 3-((R or S)-1-(5-(5-amino-3,4-difluoro-2-(trifluoromethyl)phenyl)-4-fluoro-2-(((2R,7aS)-2-fluorotetrahydro-1H-pyrrolizin-7a(5H)-yl)methoxy)-8,9-dihydro-10H-7-oxa-1,3,6,10-tetraazacyclohepta[de]naphthalen-10-yl)propyl)pyridin-2-amine] | > 100 nM | > 100 nM | > 100 nM
CC(c1cccnc1N)N1CCOc2nc(-c3cc(O)cc4ccc(F)c(F)c34)c(F)c3nc(O)nc1c23 (centres unmarked) [Compound 9] | > 1000 nM | > 1000 nM | > 1000 nM
Cc1cc(N)cc(-c2nc3c4c(nc(OC[C@@H]5CCCN5C5COC5)nc4c2F)N(C(C)c2cccnc2N)CCO3)c1C(F)(F)F (single isomer, unassigned) [Compound 161, 3-((R or S)-1-(5-(5-amino-3-methyl-2-(trifluoromethyl)phenyl)-4-fluoro-2-(((S)-1-(oxetan-3-yl)pyrrolidin-2-yl)methoxy)-8,9-dihydro-10H-7-oxa-1,3,6,10-tetraazacyclohepta[de]naphthalen-10-yl)ethyl)pyridin-2-amine] | 48 nM | > 100 nM | 14 nM
Cc1cc(N)cc(-c2nc3c4c(nc(OC[C@@]56CCCN5C[C@H](F)C6)nc4c2F)N(C(C)c2cccnn2)CCO3)c1C(F)(F)F (single isomer, unassigned) [Compound 128, 3-(4-fluoro-2-(((2R,7aS)-2-fluorotetrahydro-1H-pyrrolizin-7a(5H)-yl)methoxy)-10-((R or S)-1-(pyridazin-3-yl)ethyl)-9,10-dihydro-8H-7-oxa-1,3,6,10-tetraazacyclohepta[de]naphthalen-5-yl)-5-methyl-4-(trifluoromethyl)aniline] | – | – | > 100 nM
Cc1ccc(C(C)N2CCOc3nc(-c4cc(N)c(F)c(C)c4C(F)(F)F)c(F)c4nc(OC[C@@]56CCCN5C[C@H](F)C6)nc2c34)c(N)n1 (single isomer, unassigned) [Compound 252, 3-((R or S)-1-(5-(5-amino-4-fluoro-3-methyl-2-(trifluoromethyl)phenyl)-4-fluoro-2-(((2R,7aS)-2-fluorotetrahydro-1H-pyrrolizin-7a(5H)-yl)methoxy)-8,9-dihydro-10H-7-oxa-1,3,6,10-tetraazacyclohepta[de]naphthalen-10-yl)ethyl)-6-methylpyridin-2-amine] | – | – | > 100 nM
